Measurements reported in patent US5808049A, “Stereospecific 5-fu esters and methods for preparing same” (Director-General of Agency of Industrial Science and …, priority 1994, dated 1998).

Tests used:
[1] = Stereoselective hydrolysis of anticancer agent esters with human pancreas cancer cells MIA PaCa-2; conditions: human, mia paca-2 cells, pH 7.5
Description: (§1) Each of the reaction mixtures was prepared by dissolving 1 mg of the ester in 10 μl of ethanol, and by mixing with it, 90 μl of a 0.1M phosphoric acid buffer (having a pH of 7.5), plus one of the following: 100 μl of a cell suspension, or 20 or 30 μl of whole blood, or 50 μl of tissue homogenate. […] The cells numbers in 100 μl of the cell suspension used in the reaction were as follows: rat liver cancer cells Anr4=7×10^6 ; rat pancreas cancer cells ARIP=8×10^6 ; rat sarcoma cells XC=5×10^6 ; human histiocytic leukemia cells U937=1×10^7 ; human pancreas cancer cells MIA PaCa-2=8×10^6 ; and human intestinum crassum cancer cells Colo 320=1×10^7. Fifty μl of the tissue homogenate corresponded to 20 mg of wet tissue.
(§2) Each of these reaction mixtures was stirred for 12 hours at 30° C. by a magnetic stirrer; then 1.5 μl of 2N HCl was added, to bring the pH to about 2.5, and extraction with 1 ml of ethyl acetate in the presence of a saturated sodium chloride was carried out twice. The ethyl acetate layers of each sample were combined, the volume was adjusted to precisely 2 ml, and it was divided into 1.7 ml and 0.3 ml. The former was concentrated under reduced pressure, and the contained produced carboxylic acid was isolated by thin-layer preparative chromatography. A solution of diazomethane in ether was added to it, to methylate it, and the absolute configuration and the optical purity of the methylated product were determined by high-performance liquid chromatography using a chiral column. The latter 0.3 ml was directly methylated, and then it was concentrated and adjusted to 0.3 ml again, and the methyl ester of the contained produced carboxylic acid was determined quantitatively by gas chromatography, from which the hydrolyzed rate was determined. The column used in the high-performance liquid chromatography was a Chiralcell OJ or OD column (trade name; 4.6×250 mm) manufactured by Daicel; the elution was carried out by using a 10% 2-propanol/hexane mixture; and the flow velocity was 1 or 0.75 ml/min. The column used in the gas chromatography was a capillary column of OV-1 (0.25 mm×25 m), and the analysis temperature was 120° to 180° C.

[2] = tested on: human pancreas cancer cells MIA PaCa-2; assay: as above; conditions: MIA PaCa-2; 12 hours at 30° C., pH 7.5
Description: as §1, §2

[3] = tested on: human histiocytic leukemia cells U937; assay: Stereoselective hydrolysis of anticancer agent esters with human histiocytic leukemia cells U937; conditions: U937; 12 hours at 30° C., pH 7.5
Description: as §1, §2

[4] = as above; conditions: human, u937 cells, pH 7.5
Description: as §1, §2

[5] = Stereoselective hydrolysis of anticancer agent esters with normal rat liver homogenate; conditions: 12 hours at 30° C., pH 7.5
[6] = tested on: human intestinum crassum cancer cells Colo 320; assay: Stereoselective hydrolysis of anticancer agent esters with human intestinum crassum cancer cells Colo 320; conditions: Colo320; 12 hours at 30° C., pH 7.5
Description: as §1, §2

[7] = as above; conditions: human, colo 320 cells, pH 7.5
Description: as §1, §2

[8] = Stereoselective hydrolysis of anticancer agent esters with normal rat pancreas homogenate; conditions: 12 hours at 30° C., pH 7.5
Description: as §1, §2

[9] = tested on: rat liver cancer cells Anr4; assay: Stereoselective hydrolysis of anticancer agent esters with rat liver cancer cells Anr4; conditions: Anr4; 12 hours at 30° C., pH 7.5
Description: as §1, §2

[10] = as above; conditions: rat, anr4 cells, pH 7.5
Description: as §1, §2

[11] = tested on: rat pancreas cancer cells ARIP; assay: Stereoselective hydrolysis of anticancer agent esters with rat pancreas cancer cells ARIP; conditions: ARIP; 12 hours at 30° C., pH 7.5
Description: as §1, §2

[12] = as above; conditions: rat, arip cells, pH 7.5
Description: as §1, §2

rat sarcoma cells XC = assay: Stereoselective hydrolysis of anticancer agent esters with rat sarcoma cells XC; conditions: XC; 12 hours at 30° C., pH 7.5
Description: as §1, §2

[13] = as above; conditions: rat, xc cells, pH 7.5
Description: as §1, §2

[14] = Stereoselective hydrolysis of anticancer agent esters with rat whole blood; conditions: pH 7.5
Description: as §1, §2

[15] = Stereoselective hydrolysis of anticancer agent esters with human whole blood; conditions: pH 7.5
Description: as §1, §2

[16] = Stereoselective hydrolysis of anticancer agent esters with normal rat muscle homogenate; conditions: 12 hours at 30° C., pH 7.5

metabolised at 12 h [1]: 20.6%
enantiomer excess of the carboxylic acid produced by the hydrolysis [2]: 19.0 % e.e.
enantiomer excess of the carboxylic acid produced by the hydrolysis [3]: 57.8 % e.e.
metabolised at 12 h [4]: 12.6%
enantiomer excess of the carboxylic acid produced by the hydrolysis [5]: > 99 % e.e.
enantiomer excess of the carboxylic acid produced by the hydrolysis [6]: 64.6 % e.e.
metabolised at 12 h [7]: 13.8%
enantiomer excess of the carboxylic acid produced by the hydrolysis [8]: > 99 % e.e.
enantiomer excess of the carboxylic acid produced by the hydrolysis [9]: 98.4 % e.e.
metabolised at 12 h [10]: 7.8%
enantiomer excess of the carboxylic acid produced by the hydrolysis [11]: > 99 % e.e.
metabolised at 12 h [12]: 1.9%
enantiomer excess of the carboxylic acid produced by the hydrolysis (rat sarcoma cells XC): > 99 % e.e.
metabolised at 12 h [13]: 3.4%
enantiomer excess of the carboxylic acid produced by the hydrolysis ([14]; rat whole blood, 12 hours at 30° C.): 41.8 % e.e.
metabolised at 12 h ([14]; rat, whole blood): 16.3%
enantiomer excess of the carboxylic acid produced by the hydrolysis ([15]; human whole blood, 12 hours at 30° C.): 66.9 % e.e.
metabolised at 12 h ([15]; human, whole blood): 36.1%
enantiomer excess of the carboxylic acid produced by the hydrolysis [16]: 87.8 % e.e.
Structure (SMILES): O=C(OC[C@H]1O[C@@H](n2cc(F)c(=O)[nH]c2=O)[C@H](O)[C@@H]1O)C(Cc1ccccc1)NC(=O)C(F)(F)F (stereo partly drawn) [IIc, 5'-(RS)-(2-trifluoroacetamido-3-phenylpropionyl)-5-fluorouridine]
